These results are taken from US20060111327A1, “Derivatives of triptolide having a high immunosuppressive effect and high water solubility, and uses thereof” (priority 2002, published 2006).

Molecules are shown by their SMILES. Values joined by “and” are separate entries in the source; they are usually repeats but may differ in a detail not shown here. Equal entries are not always repeated. Where two headings read alike, the source gives them in different places. Bounds are passed on as bounds.

The subject of data set [1] is cotton ball granulation in rat. The arrangement: species or system Wister rats. As to conditions: in vivo.
The test system of a further data set is Kunming mice. The settings on record: both, mouse, in vivo, iv.
The next data set can be described thus: in vivo. The settings on record: both, Kunming, mouse.
The nature of the next data set: physchem. As to conditions: water.
Another data set has as its system IL-2. Type of data set: cell-based, rat.
For the next data set, the system named is IL-6. It is filed as cell-based, rat.
The next data set has as its system iNOS. It is filed as cell-based, rat.
Data set [2] deals with transplanted heart (C57BL mouse heart grafted into balb/c mouse). As to conditions: in vivo.
Data set [3] deals with rat adjuvant-induced arthritis. Details: species or system SD rats. The settings on record: in vivo.
Data set [4] deals with rat adjuvant-induced arthritis. As to conditions: in vivo.
A short description of data set [5]: Cell membrane permeability (unpublished experimental data). It is filed as in vitro ADME. The settings on record: our unpublished experimental data.
For data set [6] the following is noted: background statement; cited from earlier work.
The conditions of data set [7]: in vivo; cited from earlier work.

For the compound `C[C@]12CCC(=O)C=C1CC[C@@H]1[C@@H]2[C@@H](O)C[C@@]2(C)[C@H]1CC[C@]2(O)C(=O)CO` [Hydrocordisone, reference compound], in [1], the Inhibition of swelling was 42.2% and the “effect against cotton ball granulation” value is listed as “significantly decreased weight of cotton ball granulation”.
Broadly, the solubility is how much of the substance goes into solution per volume. Higher therefore signals much dissolved substance. As for `CC(C)[C@]12OP(=O)([O-])O[C@H]1[C@]13O[C@H]1C[C@H]1C4=C(CC[C@]1(C)[C@@]31OC1[C@H]2SC#N)C(=O)OC4.[Na+]` (stereo partly drawn) [WDY1, sodium 12-β-thiocyano triptolide-13-α-14-β-phosphate], the “Death No. of mice” value with Kunming mice (98 mg/kg) is 0; in the data set with Kunming mice (109 mg/kg), 1; in the data set on Kunming mice (122 mg/kg), 4; in the data set on Kunming mice (135 mg/kg), 8; in the data set on Kunming mice (150 mg/kg), 9. The Mortality in the data set with Kunming mice (98 mg/kg) turned out to be 0%; with Kunming mice (109 mg/kg) it was 10%; in the data set with Kunming mice (122 mg/kg), 40%; with Kunming mice (135 mg/kg), 80%; in the data set with Kunming mice (150 mg/kg) it was 90%. Further, the Inhibition of swelling in data set [1] is 45.7% and 59.3% and 46.3%. Besides, in [1], the “effect against cotton ball granulation” value is “significant effect”. Moreover, the LD50 was 126 mg/kg in “in vivo” (acute toxicity LD50); 119 to 133 mg/kg in “in vivo” (iv, 95% limit of LD50); 126 mg/kg in the data set “in vivo” (iv, LD50). The solubility in the data set “physchem” was greater than 100 mg/mL.
For the compound `CC(C)[C@]12OP(=O)([O-])O[C@H]1[C@]13O[C@H]1C[C@H]1C4=C(CC[C@]1(C)[C@@]31OC1[C@H]2Cl)C(=O)OC4.[Na+]` (stereo partly drawn) [WDY2, sodium 12-β-chlorotriptolide-13-α-14-13-phosphate], the solubility in “physchem” was greater than 100 mg/mL.
For the compound `CC(C)[C@]12O[C@H]1C1O[C@]13[C@]1(O[C@H]1C[C@H]1C4=C(CC[C@@]13C)C(=O)OC4)[C@@H]2O[PH](=O)[O-].[Na+]` (stereo partly drawn) [WDY4, sodium triptolide-14-β-phosphite], the “inhibition of LPS- or PHA-induced IL-2 mRNA expression” value in the data set on IL-2 is “completely inhibited”. Besides, in the data set on IL-6, the “inhibition of mRNA expression of IL-6” value is listed as “completely”. Also, the “inhibition of mRNA expression of iNOS” value in the data set on iNOS is on record as “completely”. Further, the solubility in “physchem” was greater than 100 mg/mL.
Consider `CC(C)[C@@]1(O)[C@H](SC#N)C2O[C@]23[C@]2(O[C@H]2C[C@H]2C4=C(CC[C@@]23C)C(=O)OC4)[C@@H]1OC(=O)CCC(=O)O` (stereo partly drawn) [WDY6, 12-β-thiocyano-13-α-hydroxy triptolide-14-β-succinic acid mono-ester], for which, in data set [2], the Average survival time was 12.7 days; the “body weight and appetite of treated mice” value was “did not show a decrease of body weight and their appetites were normal”. In data set [3], the “effect on thickness of the contralateral paw (left hind paw)” value is given as “significantly decreased”. Further, the “effect in the treatment of adjuvant-induced rat arthritis” value in data set [4] is “significant effect”. Moreover, in data set [1], the Inhibition of swelling is 42.6% and 47.1% and 49.0%; the “effect against cotton ball granulation” value was “significant effect”.
`CC(C)[C@]12O[C@H]1C1O[C@]13[C@]1(O[C@H]1C[C@H]1C4=C(CC[C@@]13C)C(=O)OC4)[C@@H]2OP(=O)([O-])[O-].[Na+].[Na+]` (stereo partly drawn) [WDY7, disodium triptolide-14-β-phosphate]: in [2], the Average survival time was 13.8 days; the “anti-rejection effect” value is “significant anti-rejection effect”; the “body weight and appetite of treated mice” value was “did not show a decrease of body weight and their appetites were normal”. Further, in data set [4], the “effect in the treatment of adjuvant-induced rat arthritis” value was “significant effect”. Besides, in data set [1], the Inhibition of swelling is 41.5% and 55.6% and 56.8%; the “effect against cotton ball granulation” value was “significant effect”. The compound also gave an LD50 in the data set “in vivo” (acute toxicity LD50) of 0.8 mg/kg. In “physchem”, this compound displayed a solubility greater than 100 mg/mL.
In the case of `CC(C)[C@]12O[C@H]1[C@@H]1O[C@]13[C@]1(O[C@H]1C[C@H]1C4=C(CC[C@@]13C)C(=O)OC4)[C@@H]2O` [triptolide], the “cell membrane permeability” value in data set [5] is “Low cell membrane permeability”. Further, in [6], the “water solubility” value was “Low water solubility”. For the same compound, in data set [7], the LD50 is recorded as 0.85 mg/kg body weight.
